Measured values reported in ChEMBL document CHEMBL3046046, “Design, synthesis, and QSAR study of novel 2-(2,3-dioxo-2,3-dihydro-1H-indol-1-yl)-N-phenylacetamide derivatives as cytotoxic agents” (Med Chem Res, 2011).
pIC50: −log10 of the molar value.

What was measured:
MCF7 [1] = test: Cytotoxicity against Homo sapiens (human) MCF7 cells after 72 hr by XTT assay; type: functional, cell-based; conditions: MCF7, 72 h
Vero = test: Cytotoxicity against Chlorocebus aethiops (African green monkey) Vero cells after 72 hr by XTT assay; type: cell-based; conditions: Chlorocebus sabaeus
MCF7 [2] = test: Cytotoxicity against Homo sapiens (human) MCF7 cells assessed as cell survival after 72 hr by XTT assay; type: functional; design: concentration or dose not given beside the values
[3] = Cytotoxicity against Chlorocebus aethiops (African green monkey) Vero cells assessed as cell survival after 72 hr by XTT assay; type: cell-based; design: concentration or dose not given beside the values; conditions: chlorocebus sabaeus, read-out: Activity

Structure (SMILES) | pIC50 (MCF7 [1]) | pIC50 (Vero) | Activity (MCF7 [2]) [%] | viability at 72 h [3] [%]
O=C(CN1C(=O)C(=O)c2cc(Br)cc(Br)c21)Nc1ccc([N+](=O)[O-])cc1 | 5.71 | 4.42 | – | –
Cc1ccc(NC(=O)CN2C(=O)C(=O)c3cc(Br)cc(Br)c32)cc1 | 5.61 | 4.60 | – | –
O=C(CN1C(=O)C(=O)c2cc(Br)cc(Br)c21)Nc1ccccc1[N+](=O)[O-] | 5.69 | 4.59 | – | –
Cc1ccccc1NC(=O)CN1C(=O)C(=O)c2cc(Br)cc(Br)c21 | 5.41 | 4.52 | – | –
O=C(CN1C(=O)C(=O)c2ccccc21)Nc1ccc([N+](=O)[O-])cc1 | – | – | >50 | > 50
Cc1ccc(NC(=O)CN2C(=O)C(=O)c3ccccc32)cc1 | – | – | >50 | > 50
O=C(CN1C(=O)C(=O)c2ccccc21)Nc1ccccc1[N+](=O)[O-] | – | – | >50 | > 50
Cc1ccccc1NC(=O)CN1C(=O)C(=O)c2ccccc21 | – | – | >50 | > 50
O=C(CN1C(=O)C(=O)c2cc(Br)cc(Br)c21)Nc1ccccc1 | 5.41 | 4.55 | – | –
O=C(CN1C(=O)C(=O)c2ccccc21)Nc1ccccc1 | – | – | >50 | > 50
CC[C@]1(O)C[C@@H]2CN(CCc3c([nH]c4ccccc34)[C@@](C(=O)OC)(c3cc4c(cc3OC)N(C)[C@H]3[C@@](O)(C(=O)OC)[C@H](OC(C)=O)[C@]5(CC)C=CCN6CC[C@]43[C@@H]65)C2)C1 [VINBLASTINE] | 5.72 | 4.57 | – | –
